The values that follow are results of earlier work, collected in patent US7087611B2, “Preparation of an anhydrate form of 5-[2-[4-(1,2-benzisothiazol-3-yl)-1-piperazinyl]ethyl]-6-chloro-1,3-dihydro-2H-indol-2-one hydrochloride (ziprasidone hydrochloride)” (Apotex Pharmachem Inc., priority 2004, dated 2006).

SMILES strings stand for the structures. Counter-ions that a name gives are not always drawn.

The conditions of series [1]: crystalline monohydrate form; as stated in U.S. Pat. No. 5,312,925.
The conditions of series [2]: crystalline monohydrate form; background statement.

Turning to `O=C1Cc2cc(CCN3CCN(c4nsc5ccccc45)CC3)c(Cl)cc2N1` [ziprasidone hydrochloride monohydrate], the hygroscopic stability entry in series [1] is “substantially hygroscopically stable”. Also, the aqueous solubility entry in series [2] is “very low”.
